The record followed here is ChEMBL document CHEMBL1201862, “PubChem BioAssay data set” (2004).

Data set [1] has as its system INS1. Description: INS-1E survival protection against cytokine death – cell-based, luminescence, retest, dose response (AID 449756).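 Also: cell death triggered by IL-1 beta plus TNF-alpha plus IFN-gamma mixture; protective hits raise ATP signal compared with cytokine alone wells.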 Particulars: Rattus norvegicus. In kind it is functional.
A short description of data set [2]: Luminescence Cell-Based Dose Confirmation HTS to Identify Activators of 5'UTR Stem-Loop Driven Alpha-Synuclein mRNA Translation in H4 Neuroglioblastoma Cells. [Related pubchem assays: 1829 (Project Summary), 1814 (Primary HTS)]. In kind it is functional.
Data set [3] can be described thus: Luminescence Cell-Based Dose Response HTS to Identify Activators of Luciferase Translation or Activity in H4 […] Cells. [Related pubchem assays: 1829 (Project Summary), 1814 (Primary HTS)]. The class given is functional.
Data set [4] relates to H4. Nature of the data set: Luminescence Cell-Based Dose Response HTS to Identify Activators of 5'UTR Stem-Loop Driven Prion Protein mRNA Translation in H4 Neuroglioblastoma Cells. [Related pubchem assays: 1829 (Project Summary), 1814 (Primary HTS)]. The class given is functional. Particulars: Homo sapiens.
Data set [5] deals with T1, Corticotropin-releasing factor receptor 2/Corticotropin-releasing factor-binding protein (Homo sapiens, UniProt P24387+Q13324).
T1 sequence (Q13324 whole entry): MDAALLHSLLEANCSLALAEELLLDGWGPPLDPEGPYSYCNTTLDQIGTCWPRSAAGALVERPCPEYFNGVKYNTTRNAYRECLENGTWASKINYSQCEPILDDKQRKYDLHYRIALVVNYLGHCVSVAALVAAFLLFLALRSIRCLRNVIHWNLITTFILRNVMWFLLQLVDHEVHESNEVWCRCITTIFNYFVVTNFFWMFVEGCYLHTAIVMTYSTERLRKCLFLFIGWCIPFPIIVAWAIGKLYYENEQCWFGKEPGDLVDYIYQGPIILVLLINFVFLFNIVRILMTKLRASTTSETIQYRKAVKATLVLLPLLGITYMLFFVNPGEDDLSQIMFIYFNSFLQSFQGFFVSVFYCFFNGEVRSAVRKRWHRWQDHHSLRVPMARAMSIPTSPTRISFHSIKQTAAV
T1 sequence (P24387 whole entry): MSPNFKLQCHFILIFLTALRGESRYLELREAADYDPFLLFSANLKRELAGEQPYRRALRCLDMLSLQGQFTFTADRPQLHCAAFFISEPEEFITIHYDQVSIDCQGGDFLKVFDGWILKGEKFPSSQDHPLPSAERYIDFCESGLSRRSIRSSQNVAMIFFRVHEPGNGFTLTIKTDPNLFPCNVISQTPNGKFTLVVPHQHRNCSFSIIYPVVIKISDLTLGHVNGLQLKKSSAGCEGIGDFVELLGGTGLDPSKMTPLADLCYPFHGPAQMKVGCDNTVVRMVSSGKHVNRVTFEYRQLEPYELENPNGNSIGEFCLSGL
Nature of the data set: activators of CRF receptor 2 with binding protein – uHTS hits, confirmation (AID 602473). The class given is functional. Particulars: read-out: EC50_Mean.

For data set [6], the system named is Streptococcus. Nature of the data set: GAS UMAA2166 growth inhibition – luminescence, BacTiterGlo, counter-screen for streptokinase expression inhibitor project, dose response (AID 1915).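 Also: potency for reduction of bacterial viability or growth.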 In kind it is functional, organism-based. A general note: A counterscreen serves to expose hits that act by an unwanted route or on another target.
The subject of data set [7] is Streptococcus sp. 'group A'. Description: Streptococcus pyogenes SK(-)GAS viability under kanamycin – luminescence, BacTiterGlo, confirmation, counter-screen for streptokinase expression inhibitor project, dose response (AID 1900). The class given is functional, organism-based.
Data set [8] addresses T2, Streptokinase A (Streptococcus pyogenes serotype M1, UniProt P10520).
T2 sequence (P10520 whole entry): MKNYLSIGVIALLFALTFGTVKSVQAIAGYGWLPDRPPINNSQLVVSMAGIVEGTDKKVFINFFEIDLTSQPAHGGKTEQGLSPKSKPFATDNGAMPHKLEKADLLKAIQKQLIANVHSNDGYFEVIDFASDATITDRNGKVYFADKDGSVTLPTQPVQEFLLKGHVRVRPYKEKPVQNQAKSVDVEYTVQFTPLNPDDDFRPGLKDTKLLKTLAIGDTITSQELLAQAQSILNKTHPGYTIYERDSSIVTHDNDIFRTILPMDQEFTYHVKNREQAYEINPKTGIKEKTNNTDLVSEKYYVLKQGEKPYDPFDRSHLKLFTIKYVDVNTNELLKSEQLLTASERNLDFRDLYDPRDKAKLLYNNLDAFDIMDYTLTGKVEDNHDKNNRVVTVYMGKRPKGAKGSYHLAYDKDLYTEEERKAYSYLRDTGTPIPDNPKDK
Description: viability-normalized secreted streptokinase activity reduction – plasminogen activation absorbance, OD405, dose response (AID 1914).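 Also: secreted streptokinase activity via plasminogen activation per viability signal from cell pellet.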 In kind it is functional, Streptococcus pyogenes M1 GAS.

In data set [9] the target is T3, Cytochrome P450 1A2 (Homo sapiens, UniProt P05177).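 Also: PubChem cytochrome P450 panel assay, CYP1A2 panel member.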
T3 sequence (P05177 whole entry): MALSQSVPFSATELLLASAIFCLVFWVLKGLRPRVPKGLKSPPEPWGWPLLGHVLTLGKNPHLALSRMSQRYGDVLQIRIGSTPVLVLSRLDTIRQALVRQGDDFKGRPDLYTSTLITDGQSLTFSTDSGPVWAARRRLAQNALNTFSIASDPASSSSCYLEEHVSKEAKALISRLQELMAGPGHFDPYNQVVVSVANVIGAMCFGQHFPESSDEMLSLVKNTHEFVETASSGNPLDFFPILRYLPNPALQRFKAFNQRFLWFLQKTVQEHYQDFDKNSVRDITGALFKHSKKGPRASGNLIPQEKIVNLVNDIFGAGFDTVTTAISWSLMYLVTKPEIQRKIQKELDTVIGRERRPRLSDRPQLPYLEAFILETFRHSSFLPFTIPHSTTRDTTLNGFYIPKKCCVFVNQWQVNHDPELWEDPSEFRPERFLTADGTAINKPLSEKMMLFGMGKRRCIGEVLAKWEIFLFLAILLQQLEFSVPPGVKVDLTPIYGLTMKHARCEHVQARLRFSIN

A short description of data set [10]: Trypanosoma cruzi growth suppression in host cells – NIH3T3 host cells, beta-gal luminescence, confirmation (AID 2044).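 Also: intracellular parasites grown in NIH/3T3 mouse fibroblasts as host cells; luminescent beta-galactosidase reporter signal from transgenic T. cruzi replicating inside host cells; inhibitors lower the luminescence signal.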 In kind it is functional, cell-based.
Data set [11] can be described thus: NIH3T3 cell viability loss – ATP luminescence, mouse fibroblasts, counter-screen, dose response (AID 2010).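 Also: cells exposed to compound for about 90 hours before reading.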 In kind it is functional, cell-based.
Data set [12] can be described thus: Luminescence Cell-Based Dose Response HTS to Identify Inhibitors of 5'UTR Stem-Loop Driven Prion Protein mRNA Translation in H4 Neuroglioblastoma Cells. [Related pubchem assays: 1827 (Project Summary), 1813 (Primary HTS)]. The class given is functional.
A short description of data set [13]: luciferase reporter signal suppression in cells – H4 neuroglioma cells, luminescence, dose response (AID 1990). The class given is functional, cell-based. On the technique in general: A reporter such as luciferase makes a cellular process visible.
Data set [14] can be described thus: alpha-synuclein stem-loop luciferase translation blockers – H4 neuroglioma cells, luminescence, confirmation (AID 1988). The class given is functional, cell-based.
In data set [15] the target is Cytochrome P450 2C19 (Homo sapiens, UniProt P33261). Nature of the data set: Cytochrome panel assay with activity outcomes. Panel member name: p450-cyp2c19 Compounds with AC50 equal or less than 10 uM are considered active. In kind it is functional.
Data set [16] addresses Cytochrome P450 2C9 (Homo sapiens, UniProt P11712).

Structures are written as SMILES. Active and inactive are the calls of the source. Where only a bound is given, the exact number is not on record here.

Cytochrome P450 2C19, sequence (P33261 whole entry): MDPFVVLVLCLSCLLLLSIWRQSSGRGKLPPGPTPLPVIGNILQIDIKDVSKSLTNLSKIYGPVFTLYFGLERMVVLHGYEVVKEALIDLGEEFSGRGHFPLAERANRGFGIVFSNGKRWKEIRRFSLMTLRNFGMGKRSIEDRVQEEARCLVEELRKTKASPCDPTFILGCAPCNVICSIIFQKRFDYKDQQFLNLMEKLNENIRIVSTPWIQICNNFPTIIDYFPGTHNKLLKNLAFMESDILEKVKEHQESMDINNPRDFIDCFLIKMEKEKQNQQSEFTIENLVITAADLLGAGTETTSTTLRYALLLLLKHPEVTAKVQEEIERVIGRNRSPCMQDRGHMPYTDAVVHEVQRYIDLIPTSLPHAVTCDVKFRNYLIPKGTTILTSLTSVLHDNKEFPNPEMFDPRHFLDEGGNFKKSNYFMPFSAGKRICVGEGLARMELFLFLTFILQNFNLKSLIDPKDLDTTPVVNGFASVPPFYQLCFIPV
Cytochrome P450 2C9, sequence (P11712 whole entry): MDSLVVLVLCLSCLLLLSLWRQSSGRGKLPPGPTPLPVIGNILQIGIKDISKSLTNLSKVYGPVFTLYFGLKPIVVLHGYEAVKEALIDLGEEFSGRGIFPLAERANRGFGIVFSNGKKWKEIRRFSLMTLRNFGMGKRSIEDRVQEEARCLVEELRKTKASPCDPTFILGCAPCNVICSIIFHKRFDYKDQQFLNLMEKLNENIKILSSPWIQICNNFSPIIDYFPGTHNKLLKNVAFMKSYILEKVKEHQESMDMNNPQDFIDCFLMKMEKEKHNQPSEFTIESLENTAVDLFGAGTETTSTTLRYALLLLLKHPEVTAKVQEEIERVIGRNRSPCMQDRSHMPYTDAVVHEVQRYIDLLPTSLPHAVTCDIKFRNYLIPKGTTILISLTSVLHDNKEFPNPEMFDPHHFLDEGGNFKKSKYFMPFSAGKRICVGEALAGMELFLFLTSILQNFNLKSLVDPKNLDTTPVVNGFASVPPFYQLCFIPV

`CC1CN(CC(O)COC(c2ccc(Cl)cc2)c2ccc(Cl)cc2)CC(C)O1` (centres undefined): in [1], the AC50 (as a rule, the concentration at which the activity in the assay is half-maximal) was 11.9 µM (active).

Regarding `O=C(Nc1cccnc1)c1ccc(CN2CCc3ccccc3C2)cc1`, the EC50 was 50.3 µM (active) in data set [2], 28.6 µM (active) in data set [3] and > 120 µM (not active) in data set [4].

As to `CCOC(=O)c1cc([N+](=O)[O-])sc1NC(=O)c1ccc(S(=O)(=O)N2CC3(C)CC2CC(C)(C)C3)cc1` (centres undefined), the EC50 in data set [5] was 0.793 µM (active).

For `CCN(CC)CCN1C(=O)c2oc3ccccc3c(=O)c2C1c1ccc(F)cc1` (centres undefined), the EC50 in [2] is > 120 µM (not active); in data set [3], 14.1 µM (active); in data set [4] it was 22.4 µM (active).

Regarding `CSc1ccc(S(=O)(=O)Nc2ccc(N3CCOCC3)c(Cl)c2)cc1`, the AC50 in data set [1] was 29.8 µM (active).

As for `CN(C)C=O.COCCn1c(SCc2nc(O)c3c(C)c(C(=O)OC)sc3n2)nc2ccccc21`, the EC50 was 101 µM (active) in [6], 6.06 µM (active) in data set [7] and > 150 µM (not active) in data set [8]. The AC50 in data set [9] is 25.1 µM (inconclusive).

As to `NC1=C(c2nc3ccccc3[nH]2)C(=O)CN1c1ccccc1`, the figures for the EC50 in data set [2], in data set [3] and in data set [4] were > 120 µM (not active), 79.8 µM (active) and 6.44 µM (active), respectively.

As for `C#CCOCCOCCOCCNc1nc(N2CCN(C(=O)CCCCCCCCCCNC(=O)[C@H](CCCCN)n3cc(C[C@@H](C)CC)nn3)CC2)nc(N2CCN(C(=O)CCCCCCCCCCNC(=O)[C@@H]([C@H](C)O)n3cc(C)nn3)CC2)n1`, the AC50 in [1] was 4.74 µM (active).

Regarding `CCOC(=O)/C(=N\Nc1ccc(Cl)cc1)c1csc(Nc2ccccc2)n1`, the EC50 in data set [10] is 1.48 µM (active); in [6], 37 µM (active); in data set [7], 6.05 µM (active); in data set [8], 20.9 µM (active); in [11], > 60 µM (not active).

For `O=C(Cn1cc(C(F)(F)F)cc(Cl)c1=O)NCc1ccccc1`, the EC50 in [2] was 84.7 µM (active); in data set [3], 31.6 µM (active); in [4], 18.5 µM (active).

As for `Brc1ccccc1C1=Nn2c(nnc2-c2ccccc2)SC1`, the EC50 in [12] was > 120 µM (not active); in data set [13] it was 15.5 µM (active); in [14] it was 38.4 µM (active).

On to `C[C@]1(C(=O)O)[C@@H]2CC[C@@H](O2)[C@@]1(C)C(=O)O`, for which the AC50 entry in data set [15] was “inconclusive”.

`COc1ccc(-c2nc3c4c(ncn3n2)-c2ccccc2CC42CCCC2)cc1`: the EC50 in [12] is > 120 µM (not active); in data set [13], 23 µM (active); in data set [14], 14.7 µM (active).

Regarding `Cc1sc2ncnc(Sc3nc4ccccc4s3)c2c1C`, the EC50 in [2], in data set [3] and in data set [4] was > 120 µM (not active) throughout.

In the case of `Clc1ccc(CSc2nccn2Cc2ccccc2)cc1`, the EC50 in data set [6] is > 150 µM (not active); in data set [7] it was 33 µM (active); in [8] it was 24.2 µM (inconclusive). The AC50 in data set [16] was 22.4 µM (inconclusive).

Regarding `O=c1c(-c2ccc(Cl)cc2)cnc2n1CCS2`, the EC50 is 13 µM (active) in data set [2], 11.3 µM (active) in data set [3] and 13.7 µM (active) in data set [4].

Turning to `Clc1ccccc1Cn1nnc2c(N3CCOCC3)nc(C3CC3)nc21`, the EC50 is > 120 µM (not active) in data set [12], 23.8 µM (active) in data set [13] and 27 µM (active) in data set [14].

Take `CCOc1ccc(S(=O)(=O)N2CCCCC2)c2ccccc12`: the EC50 was > 120 µM (not active) in data set [12], 20.9 µM (active) in data set [13] and > 120 µM (not active) in data set [14].

`Cc1ccccc1NC(S)=NN1CCN(C)CC1`: the AC50 in data set [15] (read-out: AC50) was 25.1 µM (inconclusive).

Turning to `Cc1cc[n+](C(C)C(=O)c2ccc(-c3ccccc3)cc2)cc1` (centres undefined), the concentration at half-maximal activity (AC50) in data set [1] is 4.05 µM (active). Besides, the EC50 in [10] was 3.33 µM (active); in data set [11], > 60 µM (not active).

For `CC(Oc1ccc(C(=O)c2ccccc2)cc1)C(=O)Nc1ccc(S(N)(=O)=O)cc1` (centres undefined), the EC50 in [5] was 8.21 µM (active).

For the compound `COC(=O)C1=CN(C2CCCCC2)C=C(C(=O)OC)C1c1ccc2c(c1)OCO2`, the EC50 in data set [12] was 57.5 µM (active); in [13] it was 15.8 µM (active); in data set [14], > 120 µM (not active); in [10], 1.56 µM (active); in [11], > 60 µM (inconclusive).

As for `CCOC(=O)CN1C(=O)C(Sc2n[nH]c(-c3ccc(C)cc3)n2)CCc2ccccc21` (centres undefined), the EC50 was > 120 µM (not active) in data set [12], 19.1 µM (active) in data set [13] and > 120 µM (not active) in [14].

On to `CC(=O)C(C(C)=O)c1cc(NS(=O)(=O)c2ccccc2)ccc1NS(=O)(=O)c1ccccc1`, for which, in data set [5], the EC50 is 9.35 µM (active).

Turning to `Cc1nn(-c2ccccc2)c2sc(C(=O)NC3CC3)cc12`, the EC50 in data set [2] was > 120 µM (not active); in [3], 48.3 µM (active); in data set [4] it was 27.9 µM (active).

`Cc1nnc(SCC(=O)NC(=O)Nc2ccc3c(c2)OCCO3)n1N`: the EC50 is 11.9 µM (active) in data set [2], 32.8 µM (active) in data set [3] and > 120 µM (not active) in data set [4].

As to `COC(=O)c1ccc(CSc2nncn2C)cc1`, the results for the EC50 in [2], in data set [3] and in data set [4] were 9.45 µM (active), 54.3 µM (active) and 11.3 µM (active), respectively.

For the compound `COc1ccc(NC(=O)C(c2ccc(OC)cc2)N(C)C(=O)CNC(C)=O)cc1` (centres undefined), in [15], the AC50 result is reported as “inconclusive”.

For the compound `O=C(CSc1ccc(Cl)cc1)Nc1ccc(N2CCN(c3ccccc3)CC2)c(F)c1`, the AC50 in data set [15] (read-out: AC50) is 3.55 µM (inconclusive).

With `CCOc1ccc(NS(=O)(=O)c2ccc(C(=O)NCC3(N(C)C)CCCCC3)cc2)cc1`, the EC50 in data set [5] was 8.72 µM (active).
